Results as given in patent US10174015B2, “Substituted heterocyclic derivative, preparation method and use thereof” (Xiamen University, priority 2014, dated 2019).
Where two headings read alike, the source gives them in different places.

Tests used:
[1] = test system: RAW264.7 cells; assay: Assay on cytotoxicity (CCK8); assay type: cell-based; conditions: RAW264.7 cells, 3, 10, 30, 100 μM, 24 h and 48 h; compound 9 except at 100 μM
Protocol: RAW264.7 cells in good growing state (purchased from American Type Culture Collection, ATCC, Beijing), at a density of about 80%-90%, were scraped off with a cell scraper to prepare a cell suspension. After counting, the cells were accurately seeded in a 96-well plate, at 100 μL per well, wherein the total number of cells retained the same, at about 20000 cells/well, and the same amount of culture medium (which was DMEM (Gibco, Shanghai) medium containing 10% fetal bovine serum (PAA), 1% penicillin-streptomycin (PAA)) was added. The 96-well plate was placed in an incubator to preincubate for 24 h (37° C., 5% CO2). The marginal wells of the plate were filled with an equal amount of PBS, but were not seeded with cells, so as to prevent evaporation of the culture medium in the experimental group. […] After incubating the plate in the incubator for a period of time (24 or 48 h), 10 μL CCK8 solution was added to each well, and then the plate was incubated in incubator for 1.5 h. the absorbance OD value was determined at 450 nm by microplate reader, and the OD value was proportional to the number of living cells. […]

[2] = test system: zebrafish embryos; assay type: in vivo; conditions: for Death number (72 h): n = 30; for Body length (72 h) / Hatching number (72 h) / Heartbeat (72 h) / Unhatching number (72 h) / hatching rate: zebrafish, in vivo, 72 h
Protocol: Fertilized eggs (donated by Zebrafish Research Group, School of Life Sciences, Xiamen University) were incubated in freshly prepared zebrafish embryo culture medium, which was replaced by fresh culture medium every day, and cultured in 28.5° C. incubator. Pure water was placed in the incubator to ensure a certain humidity in the culture environment. The formulation for zebrafish embryo culture medium was following: 5 mM NaCl, 0.17 mM KCl, 0.33 mM CaCl2, 0.33 mM MgSO4, 10-5% methylene blue. The culture medium was prepared with pure water. For example, NaCl: 292.2 mg, KCl: 12.68 mg, CaCl2: 36.63 mg, MgSO4: 39.72 mg, and methylene blue: 0.1 μL were needed for the preparation of 1 L culture medium.
7 Groups were set for each test compound, including 5 experimental groups relating to the test compound at different concentrations (solutions containing the test compound at different concentrations were prepared by using zebrafish embryo culture medium, wherein the concentrations were 10 mg/L, 3 mg/L, 1 mg/L, 0.3 mg/L, 0.1 mg/L), 1 solvent control group (DMSO) and 1 blank control group. The positive control drug was OTC analgesic ibuprofen at concentrations as described above. A 96-well cell culture plate was used to perform the experiment, three wells in parallel were used for each experimental group, and 10 fish eggs were contained in each well.
Culture medium containing a test compound was prepared, and the culture medium was added to a 96-well plate in advance, and each fertilized egg (by reference to the experimental method in OECD No. 212 document, fertilized eggs, which developed normally within 2 h after fertilization, were selected and subjected to exposure. Transparent fish eggs visible to naked eye were normally fertilized, while white fish eggs were dead and discarded. After the selection, the normally fertilized eggs had begun to divide as observed under microscope) was then independently placed in a different well, and cultured in the culture medium containing a test compound at a different concentration. Embryo development status at different stages was observed and photographed with invert microscope, including: […]
II. Hatching number and death number were counted at 72 h after fertilization, and hatching rate and mortality were calculated; […]
V. Heartbeat of young fishes (times/min) was recorded at 72 h and 96 h after fertilization (Recording method: heartbeat of young fishes could be clearly observed under microscope, and the number of heartbeats was recorded for 30 s).

Structure (SMILES)	effect on cell viability [1]	Death number (72 h) ([2]; 0.1 mg/L)	Death number (72 h) ([2]; 0.3 mg/L)	Death number (72 h) ([2]; 1 mg/L)	Death number (72 h) ([2]; 3 mg/L)	Death number (72 h) ([2]; 10 mg/L)	Body length (72 h) ([2]; 0.1 mg/L)	Hatching number (72 h) ([2]; 0.1 mg/L)	Heartbeat (72 h) ([2]; 0.1 mg/L)	Unhatching number (72 h) ([2]; 0.1 mg/L)	Body length (72 h) ([2]; 0.3 mg/L)	Hatching number (72 h) ([2]; 0.3 mg/L)	Heartbeat (72 h) ([2]; 0.3 mg/L)	Unhatching number (72 h) ([2]; 0.3 mg/L)	Body length (72 h) ([2]; 1 mg/L)	Hatching number (72 h) ([2]; 1 mg/L)	Heartbeat (72 h) ([2]; 1 mg/L)	Unhatching number (72 h) ([2]; 1 mg/L)	hatching rate ([2]; 1 mg/L)	Hatching number (72 h) ([2]; 3 mg/L)	other results
O=C(CCCCCc1cccc(Cl)c1)N1CCOC1=O [Compound 9, 3-Chlorophenylhexanoyl Oxazolidinone]	no effect on cell viability	2	2	3	30	30	3.90 ± 0.05 mm	28	129 ± 2.73 per min	0	3.86 ± 0.03 mm	28	130 ± 3.22 per min	0	3.88 ± 0.04 mm	27	130 ± 2.76 per min	0	90%	0	Unhatching number (72 h) ([2]; 3 mg/L): 0; Hatching number (72 h) ([2]; 10 mg/L): 0; Unhatching number (72 h) ([2]; 10 mg/L): 0
O=C(CCCCCc1ccccc1)N1CCOC1=O [Compound 2, Phenylhexanoyl Oxazolidinone]	no effect on cell viability	3	2	1	30	30	3.86 ± 0.05 mm	27	130 ± 3.00 per min	0	3.87 ± 0.05 mm	28	130 ± 3.58 per min	0	3.85 ± 0.06 mm	29	128 ± 3.29 per min	0	96.67%	0	Unhatching number (72 h) ([2]; 3 mg/L): 0; Hatching number (72 h) ([2]; 10 mg/L): 0; Unhatching number (72 h) ([2]; 10 mg/L): 0
